In patent US20060183902A1, “Dihydroindolyl methanones as alpha 1a/1d adrenoreceptor modulators for the treatment of benign prostatic hypertrophy and lower urinary tract symptoms” (priority 2005, published 2006):
Where two headings read alike, the source gives them in different places.

Columns and labels:
[1] = biological target: T1, α1a-AR (Homo sapiens, UniProt P35348); assay: α1-Adrenergic receptor radio-ligand (125I-HEAT) binding assay, α1a subtype; details: COS-7 cell membranes transfected with α1a-AR, 125I-HEAT 50 pM
T1 construct: expressed in transfected cells; host or cells: COS-7
T1 sequence (P35348 1-466): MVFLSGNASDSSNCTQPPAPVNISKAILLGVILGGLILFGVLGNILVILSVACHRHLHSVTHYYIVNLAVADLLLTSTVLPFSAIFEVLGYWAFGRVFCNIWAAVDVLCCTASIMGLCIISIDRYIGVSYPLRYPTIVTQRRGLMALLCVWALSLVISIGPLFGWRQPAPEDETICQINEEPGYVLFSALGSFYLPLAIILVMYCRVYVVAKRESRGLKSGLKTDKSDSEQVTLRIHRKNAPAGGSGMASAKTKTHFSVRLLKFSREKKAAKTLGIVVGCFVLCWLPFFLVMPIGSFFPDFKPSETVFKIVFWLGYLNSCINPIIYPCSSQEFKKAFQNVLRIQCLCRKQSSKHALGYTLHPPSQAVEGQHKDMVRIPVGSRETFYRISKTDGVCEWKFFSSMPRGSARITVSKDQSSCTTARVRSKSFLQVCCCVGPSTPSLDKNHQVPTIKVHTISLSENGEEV
Procedure, shortened: (§1)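 Membranes from COS-7 cells transfected with a single α1-AR subtype, incubated 1 h at rt with 50 pM 125I-HEAT and compound (1 pM–10 µM, half-log steps, final) in Tris/EDTA/NaCl pH 7.4. Bound radioactivity collected by GF/C filtration and scintillation counting, triplicates; Ki derived.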

[2] = biological target: T2, α1b-AR (Homo sapiens, UniProt P35368); assay: α1-Adrenergic receptor radio-ligand (125I-HEAT) binding assay, α1b subtype; details: COS-7 cell membranes transfected with α1b-AR, 125I-HEAT 50 pM
T2 construct: expressed in transfected cells; host or cells: COS-7
T2 sequence (P35368 1-520): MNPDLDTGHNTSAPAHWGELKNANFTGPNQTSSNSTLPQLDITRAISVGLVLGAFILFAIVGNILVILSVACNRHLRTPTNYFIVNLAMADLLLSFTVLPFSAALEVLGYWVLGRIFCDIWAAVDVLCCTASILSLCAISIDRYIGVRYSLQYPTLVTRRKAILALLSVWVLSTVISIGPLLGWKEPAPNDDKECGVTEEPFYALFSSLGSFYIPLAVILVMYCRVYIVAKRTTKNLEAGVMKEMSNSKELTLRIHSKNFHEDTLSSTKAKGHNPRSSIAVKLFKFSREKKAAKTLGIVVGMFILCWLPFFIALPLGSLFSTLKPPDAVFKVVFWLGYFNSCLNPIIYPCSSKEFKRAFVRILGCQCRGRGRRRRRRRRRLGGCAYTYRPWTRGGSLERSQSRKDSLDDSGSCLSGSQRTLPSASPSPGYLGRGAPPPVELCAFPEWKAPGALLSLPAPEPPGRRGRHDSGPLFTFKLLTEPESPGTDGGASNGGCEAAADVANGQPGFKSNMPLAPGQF
Procedure, shortened: as §1

[3] = biological target: T3, α1d-AR (Homo sapiens, UniProt P25100); assay: α1-Adrenergic receptor radio-ligand (125I-HEAT) binding assay, α1d subtype; details: COS-7 cell membranes transfected with α1d-AR, 125I-HEAT 50 pM
T3 construct: expressed in transfected cells; host or cells: COS-7
T3 sequence (P25100 1-572): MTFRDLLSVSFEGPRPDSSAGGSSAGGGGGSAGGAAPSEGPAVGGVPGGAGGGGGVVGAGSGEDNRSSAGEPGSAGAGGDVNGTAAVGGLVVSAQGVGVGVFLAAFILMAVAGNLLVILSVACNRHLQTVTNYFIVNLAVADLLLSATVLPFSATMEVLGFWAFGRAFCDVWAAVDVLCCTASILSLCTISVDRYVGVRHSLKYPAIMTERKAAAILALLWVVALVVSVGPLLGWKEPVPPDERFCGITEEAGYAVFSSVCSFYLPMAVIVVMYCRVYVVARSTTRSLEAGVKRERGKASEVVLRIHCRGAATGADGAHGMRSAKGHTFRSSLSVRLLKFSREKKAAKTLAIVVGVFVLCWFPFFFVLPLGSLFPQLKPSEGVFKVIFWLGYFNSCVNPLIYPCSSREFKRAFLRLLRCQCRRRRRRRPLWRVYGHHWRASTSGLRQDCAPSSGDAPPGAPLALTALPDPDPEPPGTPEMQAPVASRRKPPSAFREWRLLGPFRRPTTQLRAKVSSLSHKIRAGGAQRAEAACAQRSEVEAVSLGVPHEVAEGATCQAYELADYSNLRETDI
Procedure, shortened: as §1

[4] = read-out: Receptor Binding, Ki α1a-AR
[5] = read-out: Receptor Binding, Ki α1b-AR
[6] = read-out: Receptor Binding, Ki α1d-AR

SMILES | Ki [1, 4] [nM] | Ki [2, 5] [nM] | Ki [3, 6] [nM] | melting point [°C] | Ki ([1]; Receptor Binding, Ki α1a-AR) [nM] | Ki ([2]; Receptor Binding, Ki α1b-AR) [nM] | Ki ([3]; Receptor Binding, Ki α1d-AR) [nM]
CC(C)Oc1ccccc1N1CCN(Cc2cccc(C(=O)N3CCc4ccc(NCc5c(F)cccc5F)cc43)c2)CC1 [Cpd 6, [6-(2,6-difluoro-benzylamino)-2,3-dihydro-indol-1-yl]-{3-[4-(2-isopropoxy-phenyl)-piperazin-1-ylmethyl]-phenyl}-methanone] | 2 | 856 | 2.4 | 137 to 139 |  |  | 
CC(C)Oc1ccccc1N1CCN(Cc2cccc(C(=O)N3CCc4cc(NCc5c(F)cccc5F)ccc43)c2)CC1 [Cpd 9, [5-(2,6-difluoro-benzylamino)-2,3-dihydro-indol-1-yl]-{3-[4-(2-isopropoxy-phenyl)-piperazin-1-ylmethyl]-phenyl}-methanone] | 26 | 2050 | 17 | 127 to 130 |  |  | 
CC(C)Oc1ccccc1N1CCN(Cc2cccc(C(=O)N3CCc4cc(NS(=O)(=O)c5cccc6c(N(C)C)cccc56)ccc43)c2)CC1 [Cpd 3, 5-dimethylamino-naphthalene-1-sulfonic acid (1-{3-[4-(2-isopropoxy-phenyl)-piperazin-1-ylmethyl]-benzoyl}-2,3-dihydro-1H-indol-5-yl)-amide] | 65 | 3450 | 98 | 80 to 83 |  |  | 
CC(C)Oc1ccccc1N1CCN(Cc2cccc(C(=O)N3CCc4cc(N)ccc43)c2)CC1 [Cpd 1, (5-amino-2,3-dihydro-indol-1-yl)-{3-[4-(2-isopropoxy-phenyl)-piperazin-1-ylmethyl]-phenyl}-methanone] | 1.5 | 301 | 8.6 | 137 to 139 |  |  | 
CC(C)Oc1ccccc1N1CCN(Cc2cccc(C(=O)N3CCc4cc(NCc5ccc(C(F)(F)F)cc5)ccc43)c2)CC1 [Cpd 8, {3-[4-(2-isopropoxy-phenyl)-piperazin-1-ylmethyl]-phenyl}-[5-(4-trifluoromethyl-benzylamino)-2,3-dihydro-indol-1-yl]-methanone] | 14 | 389 | 15 | 74 to 76 |  |  | 
Cc1c(S(=O)(=O)Nc2ccc3c(c2)N(C(=O)c2cccc(CN4CCN(c5ccccc5OC(C)C)CC4)c2)CC3)sc2ccc(Cl)cc12 [Cpd 18, 5-chloro-3-methyl-benzo[b]thiophene-2-sulfonic acid (1-{3-[4-(2-isopropoxy-phenyl)-piperazin-1-ylmethyl]-benzoyl}-2,3-dihydro-1H-indol-6-yl)-amide] | 0.04 | 43 | 4 | 192 to 195 |  |  | 
CC(C)Oc1ccccc1N1CCN(Cc2cccc(C(=O)N3CCc4cc(NS(=O)(=O)c5ccc6ccccc6c5)ccc43)c2)CC1 [Cpd 2, naphthalene-2-sulfonic acid (1-{3-[4-(2-isopropoxy-phenyl)-piperazin-1-ylmethyl]-benzoyl}-2,3-dihydro-1H-indol-5-yl)-amide] | 1.1 | 321 | 9.7 | 73 to 76 |  |  | 
Cc1ccc(OC(=O)Nc2ccc3c(c2)CCN3C(=O)c2cccc(CN3CCN(c4ccccc4OC(C)C)CC3)c2)cc1 [Cpd 4, (1-{3-[4-(2-isopropoxy-phenyl)-piperazin-1-ylmethyl]-benzoyl}2,3-dihydro-1H-indol-5-yl)-carbamic acid p-tolyl ester] |  |  |  | 166 to 168 | 2.4 | 96 | 20
COc1cccc(OC)c1CNc1ccc2c(c1)CCN2C(=O)c1cccc(CN2CCN(c3ccccc3OC(C)C)CC2)c1 [Cpd 25, [5-(2,6-dimethoxy-benzylamino)-2,3-dihydro-indol-1-yl]-{3-[4-(2-isopropoxy-phenyl)-piperazin-1-ylmethyl]-phenyl}-methanone] | 67 | 1300 | 18 | 79 to 81 |  |  | 
CC(=O)Nc1ccc(S(=O)(=O)Nc2ccc3c(c2)CCN3C(=O)c2cccc(CN3CCN(c4ccccc4OC(C)C)CC3)c2)cc1 [Cpd 19, N-[4-(1-{3-[4-(2-isopropoxy-phenyl)-piperazin-1-ylmethyl]-benzoyl}-2,3-dihydro-1H-indol-5-ylsulfamoyl)-phenyl]-acetamide] | 26 | 383 | 2.3 | 132 to 134 |  |  | 
CCOC(OCC)c1ccc(CNc2ccc3c(c2)N(C(=O)c2ccc(CN4CCC(c5ccccc5OC)CC4)cc2)CC3)cc1 [Cpd 37, [6-(4-diethoxymethyl-benzylamino)-2,3-dihydro-indol-1-yl]-{4-[4-(2-methoxy-phenyl)-piperidin-1-ylmethyl]-phenyl}-methanone] | 75.6 | 909 | 98 |  |  |  | 
COc1ccccc1C1CCN(Cc2ccc(C(=O)N3CCc4ccccc43)cc2)CC1 [Cpd 50, (2,3-dihydro-indol-1-yl)-{4-[4-(2-methoxy-phenyl)-piperidin-1-ylmethyl]-phenyl}-methanone] | 7.8 | 458 | 32 |  |  |  | 
CCCCCCCCc1ccc(CNc2ccc3c(c2)CCN3C(=O)c2cccc(CN3CCN(c4ccccc4OC(C)C)CC3)c2)cc1 [Cpd 23, {3-[4-(2-isopropoxy-phenyl)-piperazin-1-ylmethyl]-phenyl}-[5-(4-octyl-benzylamino)-2,3-dihydro-indol-1-yl]-methanone] | 195 |  | 317 | 116 to 118 |  |  | 
CC(C)Oc1ccccc1C1CCN(Cc2cccc(C(=O)N3CCc4ccc(NCc5ccccc5F)cc43)c2)CC1 [Cpd 57, [6-(2-fluoro-benzylamino)-2,3-dihydro-indol-1-yl]-{3-[4-(2-isopropoxy-phenyl)-piperidin-1-ylmethyl]-phenyl}-methanone] | 1.8 | 237 | 1.4 |  |  |  | 
CC(C)Oc1ccccc1CN1CCN(Cc2ccc(C(=O)N3CCc4ccccc43)cc2)CC1 [Cpd 52, (2,3-dihydro-indol-1-yl)-{4-[4-(2-isopropoxy-benzyl)-piperazin-1-ylmethyl]-phenyl}-methanone] | 122 | 1730 | 159 |  |  |  | 
Cc1ccc(S(=O)(=O)Nc2ccc3c(c2)N(C(=O)c2cccc(CN4CCN(c5ccccc5OC(C)C)CC4)c2)CC3)cc1 [Cpd 46, N-(1-{3-[4-(2-isopropoxy-phenyl)-piperazin-1-ylmethyl]-benzoyl}-2,3-dihydro-1H-indol-6-yl)-4-methyl-benzenesulfonamide] | 5.9 | 242 | 5.6 |  |  |  | 
COc1ccccc1C1CCN(Cc2ccc(C(=O)N3CCc4ccc(N)cc43)cc2)CC1 [Cpd 34, (6-amino-2,3-dihydro-indol-1-yl)-{4-[4-(2-methoxy-phenyl)-piperidin-1-ylmethyl]-phenyl}-methanone] | 34.9 | 473 | 49.6 |  |  |  | 
